This passage reports IC50 results from US20250282768A1 (Janssen Pharmaceutica NV, priority 2022, published 2025).

The test has as its system p-IKKa levels in L363 (NIK translocated multiple myeloma) cells. In words: Assay 2: Effect of compounds on p-IKKa levels in L363 (NIK translocated multiple myeloma) cells. The class given is cell-based. The following applies: Homo sapiens, L-363, 6 h, read-out: Assay 2 IC50 (nM), p-IKKa (Ser 176/180) in BAFF stimulated L363 cells with MG132, 6 h; average if tested more than once. An outline of the steps: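 L363 cells incubated overnight ± 250 ng/ml BAFF, then 6 h at 37 °C with compound (0.3% DMSO) ± 10 μM MG132. Lysates assayed for p-IKKa (Ser176/180) by AlphaLISA SureFire. IC50 from sigmoidal fit of % inhibition normalized to BAFF/MG132-stimulated and unstimulated controls.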

For the compound `C[C@@H](Nc1nccc(-c2cccc(-c3cc([C@]4(O)CCN(C)C4=O)on3)n2)n1)C(=O)N1CC(C)(F)C1` [Example 177, (R)-3-(3-(6-(2-(((R)-1-(3-Fluoro-3-methylazetidin-1-yl)-1-oxopropan-2-yl)amino)pyrimidin-4-yl)pyridin-2-yl)isoxazol-5-yl)-3-hydroxy-1-methylpyrrolidin-2-one], the IC50 is greater than 500 nM. The value for `C[C@H](Nc1nccc(-c2cccc(-c3cc([C@]4(O)CCN(C)C4=O)on3)n2)n1)C(=O)N1CC(C)(F)C1` [Example 178, (R)-3-(3-(6-(2-(((S)-1-(3-Fluoro-3-methylazetidin-1-yl)-1-oxopropan-2-yl)amino)pyrimidin-4-yl)pyridin-2-yl)isoxazol-5-yl)-3-hydroxy-1-methylpyrrolidin-2-one] was 50 to 500 nM. As to `C[C@@H](Nc1nccc(-c2cccc(-c3cc([C@]4(O)CCN(C)C4=O)on3)n2)n1)C(=O)N1CCCCC1` [Example 179, (R)-3-Hydroxy-1-methyl-3-(3-(6-(2-(((R)-1-oxo-1-(piperidin-1-yl)propan-2-yl)amino)pyrimidin-4-yl)pyridin-2-yl)isoxazol-5-yl)pyrrolidin-2-one], the IC50 was 50 to 500 nM. The value for `C[C@H](Nc1nccc(-c2cccc(-c3cc([C@]4(O)CCN(C)C4=O)on3)n2)n1)C(=O)N1CCCCC1` [Example 180, (R)-3-Hydroxy-1-methyl-3-(3-(6-(2-(((S)-1-oxo-1-(piperidin-1-yl)propan-2-yl)amino)pyrimidin-4-yl)pyridin-2-yl)isoxazol-5-yl)pyrrolidin-2-one] was 50 to 500 nM; that for `C[C@H](Nc1nccc(-c2cccc(-c3cc([C@]4(O)CCN(C)C4=O)on3)n2)n1)C(=O)N(C)c1ccccc1` [Example 181, (S)-2-((4-(6-(5-((R)-3-Hydroxy-1-methyl-2-oxopyrrolidin-3-yl)isoxazol-3-yl)pyridin-2-yl)pyrimidin-2-yl)amino)-N-methyl-N-phenylpropanamide] was greater than 500 nM. The value for `C[C@H](Nc1nccc(-c2cccc(-c3cc([C@]4(O)CCN(C)C4=O)on3)n2)n1)C(N)=O` [Example 182, (S)-2-((4-(6-(5-((R)-3-Hydroxy-1-methyl-2-oxopyrrolidin-3-yl)isoxazol-3-yl)pyridin-2-yl)pyrimidin-2-yl)amino)propanamide] was 50 to 500 nM. As for `CNC(=O)[C@H](C)Nc1nccc(-c2cccc(-c3cc([C@]4(O)CCN(C)C4=O)on3)n2)n1` [Example 183, (S)-2-((4-(6-(5-((R)-3-Hydroxy-1-methyl-2-oxopyrrolidin-3-yl)isoxazol-3-yl)pyridin-2-yl)pyrimidin-2-yl)amino)-N-methylpropanamide], the IC50 was in the range of 50 to 500 nM. In the case of `C[C@H](Nc1nccc(-c2cccc(-c3cc([C@]4(O)CCN(C)C4=O)on3)n2)n1)C(=O)N1CCCC1` [Example 184, (R)-3-Hydroxy-1-methyl-3-(3-(6-(2-(((S)-1-oxo-1-(pyrrolidin-1-yl)propan-2-yl)amino)pyrimidin-4-yl)pyridin-2-yl)isoxazol-5-yl)pyrrolidin-2-one], the IC50 was in the range of 50 to 500 nM. For the compound `CN1CC[C@@](O)(c2cc(-c3cccc(-c4ccnc(NCC(=O)N5CC(F)(F)C5)n4)n3)no2)C1=O` [Example 185, (R)-3-(3-(6-(2-((2-(3,3-Difluoroazetidin-1-yl)-2-oxoethyl)amino)pyrimidin-4-yl)pyridin-2-yl)isoxazol-5-yl)-3-hydroxy-1-methylpyrrolidin-2-one], the IC50 is greater than 500 nM. To `CN1CC[C@@](O)(c2cc(-c3cccc(-c4ccnc(Nc5ccon5)n4)n3)no2)C1=O` [Example 186, (R)-3-Hydroxy-3-(3-(6-(2-(isoxazol-3-ylamino)pyrimidin-4-yl)pyridin-2-yl)isoxazol-5-yl)-1-methylpyrrolidin-2-one] belongs 50 to 500 nM; to `Cc1c(Nc2nccc(-c3cccc(-c4cc([C@@]5(O)CCN(C)C5=O)on4)n3)n2)cnn1C1CCOCC1` [Example 187, (S)-3-Hydroxy-1-methyl-3-(3-(6-(2-((5-methyl-1-(tetrahydro-2H-pyran-4-yl)-1H-pyrazol-4-yl)amino)pyrimidin-4-yl)pyridin-2-yl)isoxazol-5-yl)pyrrolidin-2-one], less than 50 nM. To `Cc1ncccc1Nc1nccc(-c2cccc(-n3cc([C@]4(O)CCN(C)C4=O)nn3)n2)n1` [Example 190, (R)-3-Hydroxy-1-methyl-3-(1-(6-(2-((2-methylpyridin-3-yl)amino)pyrimidin-4-yl)pyridin-2-yl)-1H-1,2,3-triazol-4-yl)pyrrolidin-2-one] belongs less than 50 nM. To `Cc1cc(Nc2nccc(-c3cccc(-n4cc([C@]5(O)CCN(C)C5=O)nn4)n3)n2)ccn1` [Example 191, (R)-3-Hydroxy-1-methyl-3-(1-(6-(2-((2-methylpyridin-4-yl)amino)pyrimidin-4-yl)pyridin-2-yl)-1H-1,2,3-triazol-4-yl)pyrrolidin-2-one] belongs less than 50 nM; to `CN1CC[C@@](O)(c2cc(-c3cccc(-c4ccnc(Nc5cc6n(n5)CC(C)(C)OC6)n4)n3)no2)C1=O` [Example 192, (R)-3-(3-(6-(2-((6,6-Dimethyl-6,7-dihydro-4H-pyrazolo[5,1-c][1,4]oxazin-2-yl)amino)pyrimidin-4-yl)pyridin-2-yl)isoxazol-5-yl)-3-hydroxy-1-methylpyrrolidin-2-one], less than 50 nM. With `[2H]c1cc(-c2cccc(-n3cc([C@]4(O)CCN(C)C4=O)nn3)n2)nc(Nc2ccn(C)n2)n1` [Example 193, (R)-3-Hydroxy-1-methyl-3-(1-(6-(2-((1-methyl-1H-pyrazol-3-yl)amino)pyrimidin-4-yl-6-d)pyridin-2-yl)-1H-1,2,3-triazol-4-yl)pyrrolidin-2-one], the IC50 was less than 50 nM. To `CN1CC[C@@](O)(c2cc(-c3cccc(-c4ccnc(Nc5cnn6c5OCCC6)n4)n3)no2)C1=O` [Example 194, (R)-3-(3-(6-(2-((6,7-Dihydro-5H-pyrazolo[5,1-b][1,3]oxazin-3-yl)amino)pyrimidin-4-yl)pyridin-2-yl)isoxazol-5-yl)-3-hydroxy-1-methylpyrrolidin-2-one] belongs less than 50 nM; to `Cc1cc(Nc2nccc(-c3cccc(-c4cc([C@]5(O)CCN(C)C5=O)on4)n3)n2)ccn1` [Example 196, (R)-3-Hydroxy-1-methyl-3-(3-(6-(2-((2-methylpyridin-4-yl)amino)pyrimidin-4-yl)pyridin-2-yl)isoxazol-5-yl)pyrrolidin-2-one], less than 50 nM; to `Cc1ncccc1Nc1nccc(-c2cccc(-c3cc([C@]4(O)CCN(C)C4=O)on3)n2)n1` [Example 197, (R)-3-Hydroxy-1-methyl-3-(3-(6-(2-((2-methylpyridin-3-yl)amino)pyrimidin-4-yl)pyridin-2-yl)isoxazol-5-yl)pyrrolidin-2-one], less than 50 nM. The value for `[2H]c1cc(-c2cccc(-c3cc([C@]4(O)CCN(C)C4=O)no3)n2)nc(Nc2ccn(C)n2)n1` [Example 200, (R)-3-Hydroxy-1-methyl-3-(5-(6-(2-((1-methyl-1H-pyrazol-3-yl)amino)pyrimidin-4-yl-6-d)pyridin-2-yl)isoxazol-3-yl)pyrrolidin-2-one] was less than 50 nM; that for `CN1CC[C@@](O)(c2cc(-c3cccc(-c4ccnc(Nc5ccn(CCN)n5)n4)n3)no2)C1=O` [Example 204, (R)-3-(3-(6-(2-((1-(2-Aminoethyl)-1H-pyrazol-3-yl)amino)pyrimidin-4-yl)pyridin-2-yl)isoxazol-5-yl)-3-hydroxy-1-methylpyrrolidin-2-one] was 50 to 500 nM. To `CN1CC[C@@](O)(c2cn(-c3cccc(-c4ccnc(Nc5cn(C)nc5OCC(F)F)n4)n3)nn2)C1=O` [Example 205, (R)-3-(1-(6-(2-((3-(2,2-Difluoroethoxy)-1-methyl-1H-pyrazol-4-yl)amino)pyrimidin-4-yl)pyridin-2-yl)-1H-1,2,3-triazol-4-yl)-3-hydroxy-1-methylpyrrolidin-2-one] belongs less than 50 nM; to `CN1CC[C@@](O)(c2cn(-c3cccc(-c4ccnc(Nc5cnn(C)c5)n4)n3)nn2)C1=O` [Example 206, (R)-3-Hydroxy-1-methyl-3-(1-(6-(2-((1-methyl-1H-pyrazol-4-yl)amino)pyrimidin-4-yl)pyridin-2-yl)-1H-1,2,3-triazol-4-yl)pyrrolidin-2-one], less than 50 nM.

In the case of `Cc1cc(-c2cccc(-c3cc([C@]4(O)CCN(C)C4=O)on3)n2)nc(Nc2cnn(C)c2)n1` [Example 207, (R)-3-Hydroxy-1-methyl-3-(3-(6-(6-methyl-2-((1-methyl-1H-pyrazol-4-yl)amino)pyrimidin-4-yl)pyridin-2-yl)isoxazol-5-yl)pyrrolidin-2-one], the IC50 was greater than 500 nM. For the compound `Cc1cnc(Nc2cnn(C)c2)nc1-c1cccc(-c2cc([C@]3(O)CCN(C)C3=O)on2)n1` [Example 208, (R)-3-Hydroxy-1-methyl-3-(3-(6-(5-methyl-2-((1-methyl-1H-pyrazol-4-yl)amino)pyrimidin-4-yl)pyridin-2-yl)isoxazol-5-yl)pyrrolidin-2-one], the IC50 was greater than 500 nM.

With `[2H]c1cc(-c2cccc(-c3cc([C@]4(O)CCN(C)C4=O)on3)n2)nc(Nc2ccn(C)n2)n1` [Example 209, (R)-3-Hydroxy-1-methyl-3-(3-(6-(2-((1-methyl-1H-pyrazol-3-yl)amino)pyrimidin-4-yl-6-d)pyridin-2-yl)isoxazol-5-yl)pyrrolidin-2-one], the IC50 is less than 50 nM. For `[2H]c1cc(-c2cccc(-c3cc([C@]4(O)CCN(C)C4=O)on3)n2)nc(Nc2ccn(CC)n2)n1` [Example 210, (R)-3-(3-(6-(2-((1-Ethyl-1H-pyrazol-3-yl)amino)pyrimidin-4-yl-6-d)pyridin-2-yl)isoxazol-5-yl)-3-hydroxy-1-methylpyrrolidin-2-one], the IC50 is less than 50 nM.

In the case of `Cc1nn(C(F)F)cc1Nc1nccc(-c2cccc(-c3cc([C@]4(O)CCN(C)C4=O)on3)n2)n1` [Example 211, (R)-3-(3-(6-(2-((1-(Difluoromethyl)-3-methyl-1H-pyrazol-4-yl)amino)pyrimidin-4-yl)pyridin-2-yl)isoxazol-5-yl)-3-hydroxy-1-methylpyrrolidin-2-one], the IC50 was less than 50 nM.
